{"source": "patent US20210255193A1", "about": "“LYSINE REACTIVE PROBES AND USES THEREOF” (The Scripps Research Institute, priority 2017, published 2021)", "key": {"[1]": {"molecular_target": "T1, PFKP 6-phosphofructokinase type C (Homo sapiens, UniProt Q01813)", "T1 construct": "isoTOP-ABPP experiments performed in cell lysates (in vitro); endogenous in cells", "T1 sequence (Q01813 1-784)": "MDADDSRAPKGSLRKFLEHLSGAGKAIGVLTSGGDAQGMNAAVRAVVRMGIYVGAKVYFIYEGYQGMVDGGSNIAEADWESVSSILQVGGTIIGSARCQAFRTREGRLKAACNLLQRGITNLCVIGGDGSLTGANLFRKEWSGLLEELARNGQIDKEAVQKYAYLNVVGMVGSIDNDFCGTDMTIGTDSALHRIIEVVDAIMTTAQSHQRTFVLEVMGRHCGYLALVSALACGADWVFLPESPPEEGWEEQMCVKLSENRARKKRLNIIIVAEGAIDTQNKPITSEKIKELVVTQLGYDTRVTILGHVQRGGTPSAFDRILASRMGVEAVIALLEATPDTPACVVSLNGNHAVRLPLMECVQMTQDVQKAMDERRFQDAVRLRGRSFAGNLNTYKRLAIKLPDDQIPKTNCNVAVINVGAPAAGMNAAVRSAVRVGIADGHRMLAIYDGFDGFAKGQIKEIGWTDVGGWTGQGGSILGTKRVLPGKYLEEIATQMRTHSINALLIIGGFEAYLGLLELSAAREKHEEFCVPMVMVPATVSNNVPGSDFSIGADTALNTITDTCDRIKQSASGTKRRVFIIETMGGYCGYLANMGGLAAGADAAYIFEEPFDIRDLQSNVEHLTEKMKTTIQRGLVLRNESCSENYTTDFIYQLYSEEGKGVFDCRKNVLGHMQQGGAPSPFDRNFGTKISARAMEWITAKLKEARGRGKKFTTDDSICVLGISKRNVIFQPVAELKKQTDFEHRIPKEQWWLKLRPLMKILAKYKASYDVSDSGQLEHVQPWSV", "assay": "competitive isoTOP-ABPP", "format": "binding", "parameters": "key to isoTOP-ABPP reactivity ratio at lysine Q01813_K688: R = MS1 peak area ratio, DMSO (heavy) / compound-treated (light)", "settings": "for R value (DMSO/fragment) for probe 1 labeling: Q01813_K688; for R value (DMSO/fragment) for probe 1 labeling / isoTOP-ABPP ratio (R) at liganded lysine Q01813_K688 / isoTOP-ABPP reactivity ratio at lysine Q01813_K688: 50 uM, in vitro; for R value (DMSO/fragment) for probe 1 labeling / isoTOP-ABPP reactivity ratio at lysine Q01813_K688: 231 sol; for isoTOP-ABPP ratio (R) at liganded lysine Q01813_K688: sol, 231", "protocol": "(§1) In vitro covalent fragment treatment for isoTOP-ABPP. All compounds were made up as solutions in DMSO (100×) and were used at a final concentration of 50 μM for activated esters and 100 μM for guanidinylating agents. For each profiling sample, 0.5 ml of lysate was treated with 5 μl of the 100× compound stock solution or 5 μl of DMSO. Samples were treated with activated esters for\n(§2) STP-alkyne labeling and click chemistry. For concentration-dependent reactivity measurements by isoTOP-ABPP, 0.5 ml proteome aliquots were treated at ambient temperature with 1 mM STP-alkyne 1 (5 μl of 100 mM stock in DMSO) and 0.1 mM STP alkyne 1 (5 μl of 10 mM stock in DMSO), respectively. For competitive isoTOP-ABPP, after in vitro fragment treatment (detailed above), the samples were labeled for 1 h at ambient temperature with 0.1 mM STP-alkyne 1 (5 μl of 10 mM stock in DMSO). Samples were conjugated by copper-mediated azide-alkyne cycloaddition (CuAAC) to either the light (1 mM STP-alkyne or fragment treated) or heavy (0.1 mM STP-alkyne or DMSO treated) TEV tags (10 μl of 5 mM stocks in DMSO, final concentration=100 μM) using tris(2-carboxyethyl)phosphine hydrochloride\n(§3) R value calculation and processing. The ratios of light and heavy MS1 peaks for each unique peptide were quantified with a CIMAGE software using default parameters (3 MS1 acquisitions per peak and signal to noise threshold set to 2.5). For reactivity measurements by isoTOP-ABPP, the R value was calculated from the ratio of MS1 peak areas, comparing the 1 mM STP alkyne sample (light TEV tag) with the 0.1 mM STP alkyne sample (heavy TEV tag). For competitive isoTOP-ABPP, the R value was calculated from the ratio of MS1 peak areas, comparing the DMSO treated sample (heavy TEV tag) with the compound treated sample (light TEV tag). […] Ratios for unique peptide entries are calculated for each experiment; overlapping peptides with the same modified lysine (for example, different charge states, MudPIT chromatographic steps or tryptic termini) are grouped together and the median ratio is reported as the final ratio (R). The peptide ratios reported by CIMAGE were further filtered to ensure the removal or correction of low-quality ratios in each individual data set. The quality filters applied were the following: removal of half tryptic peptides; for ratios with high standard deviations from the median (90% of the median or above) the lowest ratio was taken instead of the median; removal of peptides with R=20 and only a single MS2 event triggered during the elution of the parent ion; manual annotation of all the peptides with ratios of 20, removing any peptides with low quality elution profiles that remained after the previous curation steps (only done for competitive isoTOP-ABPP).\n(§4) Cross-data processing for fragment screening. For compound treated samples, biological replicates of the same condition were averaged, if the standard deviation was below 60% of the mean; otherwise, for lysines with at least one R value <4 for a particular compound, the lowest value of the ratio set was taken. For lysines, where all R values for a particular compound were ≥4, the average was reported. For peptides containing several possible modified lysines, the lysine with the highest number of quantification events was used for analysis and the remaining, redundant peptides were reported as alternative modification sites. Peptides included in the aggregate dataset (those used for further bioinformatics and statistical analyses) were required to have been quantified in 2 experiments for competitive isoTOP-ABPP. Lysines were categorized as liganded, if they had at least one ratio R≥4 (hit fragments). For liganded lysines with R=20 for all liganding events, lysines were required to have been quantified with R=20 in two separate experiments and were further required to have been quantified with R<20 in one additional experiment."}, "[2]": {"molecular_target": "T2, NUDT2 Bis(5-nucleosyl)-tetraphosphatase (Homo sapiens, UniProt P50583)", "T2 construct": "isoTOP-ABPP experiments performed in cell lysates (in vitro); endogenous in cells", "T2 sequence (P50583 whole entry, the tested form may be a part)": "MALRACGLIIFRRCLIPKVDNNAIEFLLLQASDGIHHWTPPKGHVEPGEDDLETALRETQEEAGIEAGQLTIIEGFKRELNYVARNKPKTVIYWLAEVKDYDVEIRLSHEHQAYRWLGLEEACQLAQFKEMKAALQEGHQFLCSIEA", "assay": "competitive isoTOP-ABPP", "format": "binding", "parameters": "key to isoTOP-ABPP reactivity ratio at lysine P50583_K89: R = MS1 peak area ratio, DMSO (heavy) / compound-treated (light)", "settings": "for R value (DMSO/fragment) for probe 1 labeling: P50583_K89; for R value (DMSO/fragment) for probe 1 labeling / isoTOP-ABPP ratio (R) at liganded lysine P50583_K89 / isoTOP-ABPP reactivity ratio at lysine P50583_K89: 50 uM, in vitro; for R value (DMSO/fragment) for probe 1 labeling / isoTOP-ABPP reactivity ratio at lysine P50583_K89: 231 sol; for isoTOP-ABPP ratio (R) at liganded lysine P50583_K89: sol, 231", "protocol": "as §1, §2, §3, §4"}}, "data": [{"smiles": "COC(=O)NC(=NC(=O)OCC1c2ccccc2-c2ccccc21)n1cccn1", "note": "[fragment 49, N-Methoxycarbonyl-N′-9-fluorenylmethoxycarbonyl-pyrazole-1-carboxamidine]", "values": [{"measurement": "isoTOP-ABPP ratio, lysine Q01813_K688", "setting": "[1]; 100 uM_231_sol_in vitro", "value": 9.6}, {"measurement": "isoTOP-ABPP ratio, lysine P50583_K89", "setting": "[2]; 100 uM_231_sol_in vitro, possible other lysine P50583_K87", "value": 20.0}, {"measurement": "reaction with K89 by isoTOP-ABPP", "setting": "[2]; NUDT2 K89", "value": "preferentially reacting"}]}, {"smiles": "O=C(Oc1c(F)c(F)c(F)c(F)c1F)C(c1ccccc1)c1ccccc1", "note": "[fragment 20, Pentafluorophenyl 2,2-diphenylacetate]", "values": [{"measurement": "blockade of probe 1 labeling of K688", "setting": "[1]; PFKP K688", "value": "completely blocked"}, {"measurement": "R value (DMSO/fragment) for probe 1 labeling", "setting": "[1]", "value": 20.0}, {"measurement": "R value (DMSO/fragment) for probe 1 labeling", "setting": "[2]", "value": 0.9}]}, {"smiles": "O=C(Oc1ccc([N+](=O)[O-])cc1[N+](=O)[O-])c1ccc2ccccc2n1", "note": "[fragment 35, 2,4-Dinitrophenyl quinoline-2-carboxylate]", "values": [{"measurement": "isoTOP-ABPP ratio (R) at liganded lysine Q01813_K688", "setting": "[1]", "value": 3.3}, {"measurement": "isoTOP-ABPP ratio (R) at liganded lysine P50583_K89", "setting": "[2]", "value": 1.6}]}, {"smiles": "CCn1cc(C(=O)Oc2c(F)c(F)c(F)c(F)c2F)c(=O)c2ccc(C)nc21", "note": "[fragment 28, Pentafluorophenyl 1-ethyl-7-methyl-4-oxo-1,4-dihydro-1,8-naphthyridine-3-carboxylate]", "values": [{"measurement": "isoTOP-ABPP reactivity ratio at lysine Q01813_K688", "setting": "[1]", "value": 1.3}, {"measurement": "isoTOP-ABPP reactivity ratio at lysine P50583_K89", "setting": "[2]", "value": 1.0}]}, {"smiles": "O=C(Oc1c(F)c(F)c(F)c(F)c1F)c1cc(C(F)(F)F)cc(C(F)(F)F)c1", "note": "[fragment 21, Pentafluorophenyl 3,5-bis(trifluoromethyl)benzoate]", "values": [{"measurement": "R value (DMSO/fragment) for probe 1 labeling", "setting": "[1]", "value": 1.1}, {"measurement": "R value (DMSO/fragment) for probe 1 labeling", "setting": "[2]", "value": 0.9}]}, {"smiles": "CC(C)(C)OC(=O)NCCCC(=O)Oc1ccc([N+](=O)[O-])cc1[N+](=O)[O-]", "note": "[fragment 41, 2,4-Dinitrophenyl 4-((tert-butoxycarbonyl)amino)butanoate]", "values": [{"measurement": "isoTOP-ABPP ratio (R) at liganded lysine Q01813_K688", "setting": "[1]", "value": 4.9}, {"measurement": "isoTOP-ABPP ratio (R) at liganded lysine P50583_K89", "setting": "[2]", "value": 1.0}]}, {"smiles": "O=C(Oc1c(F)c(F)c(F)c(F)c1F)C1CCN(C(=O)OCc2ccccc2)CC1", "note": "[fragment 24, 1-Benzyl 4-(pentafluorophenyl) piperidine-1,4-dicarboxylate]", "values": [{"measurement": "isoTOP-ABPP reactivity ratio at lysine Q01813_K688", "setting": "[1]", "value": 2.5}, {"measurement": "isoTOP-ABPP reactivity ratio at lysine P50583_K89", "setting": "[2]", "value": 0.9}]}, {"smiles": "O=C(Oc1c(F)c(F)c(F)c(F)c1F)c1ccc2ccccc2n1", "note": "[fragment 25, Pentafluorophenyl quinoline-2-carboxylate]", "values": [{"measurement": "isoTOP-ABPP reactivity ratio at lysine Q01813_K688", "setting": "[1]", "value": 15.6}, {"measurement": "isoTOP-ABPP reactivity ratio at lysine P50583_K89", "setting": "[2]", "value": 1.0}]}, {"smiles": "Cn1cc(CC(=O)Oc2ccc([N+](=O)[O-])cc2[N+](=O)[O-])c2ccccc21", "note": "[fragment 32, 2,4-Dinitrophenyl 2-(1-methyl-1H-indol-3-yl)acetate]", "values": [{"measurement": "isoTOP-ABPP reactivity ratio at lysine Q01813_K688", "setting": "[1]", "value": 12.6}, {"measurement": "isoTOP-ABPP reactivity ratio at lysine P50583_K89", "setting": "[2]", "value": 3.7}]}, {"smiles": "COc1cc(CCC(=O)Oc2c(F)c(F)c(F)c(F)c2F)cc(OC)c1OC", "note": "[fragment 23, Pentafluorophenyl 3-(3,4,5-trimethoxyphenyl)propanoate]", "values": [{"measurement": "R value (DMSO/fragment) for probe 1 labeling", "setting": "[1]", "value": 2.1}, {"measurement": "R value (DMSO/fragment) for probe 1 labeling", "setting": "[2]", "value": 1.0}]}, {"smiles": "O=C(Oc1ccc([N+](=O)[O-])cc1[N+](=O)[O-])c1ccc(Oc2ccccc2)cc1", "note": "[fragment 39, 2,4-Dinitrophenyl 4-phenoxybenzoate]", "values": [{"measurement": "isoTOP-ABPP ratio (R) at liganded lysine Q01813_K688", "setting": "[1]", "value": 1.0}, {"measurement": "isoTOP-ABPP ratio (R) at liganded lysine P50583_K89", "setting": "[2]", "value": 2.4}]}]}
